# From patent publication US9133207B2, “Tetrandrine derivatives with substituted 5-carbon, preparation method and use thereof” (Hangzhou Bensheng Pharmaceutical Co., Ltd., priority 2011, dated 2015)
# Key:
# PC-3 (prostate cancer) = test: Solid tumor cell growth inhibition, MTT, 72 h (Example 7); format: cell-based, human; settings: Homo sapiens; 72 h, MTT, PC-3
# Method in brief: (§1)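 Each line is plated at 4000 cells per well in high-glucose DMEM supplemented with 10% FBS. After 24 h settling, derivatives at several concentrations are mixed in and cultured 72 h; MTT then gives viable cells, with untreated wells set to 100%.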
# MG63 (osteosarcoma) = test: as above; format: cell-based, human; settings: Homo sapiens; 72 h, MTT, MG-63
# Method in brief: as §1
# [1] = system: PANC-1 (pancreatic cancer); test: as above; format: cell-based, human; settings: Homo sapiens; 72 h, MTT, PANC-1
# Method in brief: as §1
# [2] = system: Hep-2 (laryngeal carcinoma); test: as above; format: cell-based, human; settings: Homo sapiens; 72 h, MTT, Hep 2
# Method in brief: as §1
# [3] = system: CaES-17 (esophageal cancer cell); test: as above; format: cell-based, human; settings: Homo sapiens, CaEs17; 72 h, MTT, CAES-17
# Method in brief: as §1
# [4] = system: RPMI8226 (multiple myeloma); test: Multiple myeloma cell growth inhibition, MTT, 72 h (Example 6); format: cell-based, human; settings: Homo sapiens, RPMI-8226; 72 h, MTT, RPMI8226
# Method in brief: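 Viability was read by MTT after 72 h of compound exposure at 37 °C, 5% CO2. Each well held 6000 RPMI8226 cells in 1640 medium containing 10% fetal bovine serum, with derivatives added at various concentrations.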
# [5] = system: U87 MG (malignant glioma cell); test: Solid tumor cell growth inhibition, MTT, 72 h (Example 7); format: cell-based; settings: Homo sapiens, U-87 MG
# Method in brief: as §1
# [6] = system: CNE (nasopharyngeal carcinoma cell); test: as above; format: cell-based; settings: Homo sapiens
# Method in brief: as §1
# [7] = system: RKO (human colon adenocarcinoma cell); test: as above; format: cell-based; settings: Homo sapiens; 72 h, MTT, RKO
# Method in brief: as §1
# [8] = system: Huh7 (human liver cancer cell); test: as above; format: cell-based; settings: Homo sapiens; 72 h, MTT, Huh-7
# Method in brief: as §1
# [9] = system: Becap37 (human breast cancer cell); test: as above; format: cell-based; settings: Homo sapiens; 72 h, MTT, Becap-37
# Method in brief: as §1
# [10] = system: MGC 803 (human gastric cancer cell); test: as above; format: cell-based; settings: Homo sapiens
# Method in brief: as §1
# [11] = system: SK-OV-3 (ovarian cancer cell); test: as above; format: cell-based; settings: Homo sapiens
# Method in brief: as §1
# A549 (human lung cancer) = test: as above; format: cell-based; settings: Homo sapiens; 72 h, MTT, A549
# Method in brief: as §1
# [12] = system: Hela (human cervical cancer cell); test: as above; format: cell-based; settings: Homo sapiens; 72 h, MTT, Hela
# Method in brief: as §1
# [13] = system: H9 (acute lymphoblastic leukemia, ALL); test: Leukemia cell growth inhibition, MTT, 72 h (Example 5); format: cell-based, human; settings: Homo sapiens; 72 h, MTT
# Method in brief: (§2)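 Seed 6000 leukemia cells per well in 1640 medium containing 10% FBS. Add test compounds at different concentrations, mix, incubate 72 hours at 37° C in 5% CO2. Determine viable cells by MTT.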
# [14] = system: NB4 (acute promyelocytic leukemia, AML); test: as above; format: cell-based, human; settings: Homo sapiens; 72 h, MTT
# Method in brief: as §2
# [15] = system: Jurkat (acute lymphoblastic leukemia, ALL); test: as above; format: cell-based, human; settings: for IC50 / IC90: Homo sapiens, Jurkat, 72 h, MTT
# Method in brief: as §2
# [16] = system: Kasumi-1 (acute myeloid leukemia M2 type, AML-M2); test: as above; format: cell-based, human; settings: Homo sapiens, Kasumi 1
# Method in brief: as §2
# [17] = system: K562/adr (drug-resistant, chronic myeloid leukemia, CML); test: as above; format: cell-based, human; settings: Homo sapiens, K562/Adr; 72 h, MTT
# Method in brief: as §2
smiles,measurement,setting,value
COc1ccc2cc1Oc1ccc(cc1)C[C@H]1c3cc(c(OC)cc3CCN1C)Oc1c(OC)c(OC)c(CN3CCCC(C)C3)c3c1[C@H](C2)N(C)CC3 (stereo partly drawn) [BS-TE-346],IC50,PC-3 (prostate cancer),2.92 µg/mL
same,IC90,PC-3 (prostate cancer),4.9 µg/mL
same,IC50,MG63 (osteosarcoma),0.8 µg/mL
same,IC90,MG63 (osteosarcoma),1.5 µg/mL
same,IC50,[1],2.31 µg/mL
same,IC90,[1],8.26 µg/mL
same,IC50,[2],1.79 µg/mL
same,IC90,[2],6.83 µg/mL
same,IC50,[3],1.29 µg/mL
same,IC90,[3],7.23 µg/mL
same,IC50,[4],0.02 µg/mL
same,IC90,[4],0.06 µg/mL
same,IC50,[5],0.19 µg/mL
same,IC90,[5],0.57 µg/mL
same,IC50,[6],2.5 µg/mL
same,IC90,[6],5.4 µg/mL
same,IC50,[7],0.73 µg/mL
same,IC90,[7],1.9 µg/mL
same,IC50,[8],1.63 µg/mL
same,IC90,[8],2.49 µg/mL
same,IC50,[9],0.8 µg/mL
same,IC90,[9],2.3 µg/mL
same,IC50,[10],0.9 µg/mL
same,IC90,[10],4.98 µg/mL
same,IC50,[11],3.9 µg/mL
same,IC90,[11],> 16 µg/mL
same,IC50,A549 (human lung cancer),2.5 µg/mL
same,IC90,A549 (human lung cancer),8 µg/mL
same,IC50,[12],1.83 µg/mL
same,IC90,[12],5 µg/mL
same,IC50,[13],1.01 µg/mL
same,IC90,[13],2.3 µg/mL
same,IC50,[14],0.54 µg/mL
same,IC90,[14],1.5 µg/mL
same,IC50,[15],0.58 µg/mL
same,IC90,[15],3.79 µg/mL
same,anti-Jurkat activity increase over tetrandrine,[15]; compared with tetrandrine,~4 fold
same,IC50,[16],0.5 µg/mL
same,IC90,[16],2.68 µg/mL
same,IC50,[17],0.31 µg/mL
same,IC90,[17],2.05 µg/mL
COc1ccc2cc1Oc1ccc(cc1)C[C@H]1c3cc(c(OC)cc3CCN1C)Oc1c(OC)c(OC)c(COC(=O)c3cccs3)c3c1[C@H](C2)N(C)CC3 [BS-TE-215],IC50,PC-3 (prostate cancer),7.08 µg/mL
same,IC90,PC-3 (prostate cancer),9 µg/mL
same,IC50,MG63 (osteosarcoma),6.2 µg/mL
same,IC90,MG63 (osteosarcoma),10.4 µg/mL
same,IC50,[1],5.11 µg/mL
same,IC90,[1],15 µg/mL
same,IC50,[2],9.9 µg/mL
same,IC90,[2],22.2 µg/mL
same,IC50,[3],8.69 µg/mL
same,IC90,[3],27 µg/mL
same,IC50,[4],0.87 µg/mL
same,IC90,[4],5.13 µg/mL
same,IC50,[5],3.14 µg/mL
same,IC90,[5],8 µg/mL
same,IC50,[6],6.97 µg/mL
same,IC90,[6],12.2 µg/mL
same,IC50,[7],6.04 µg/mL
same,IC90,[7],9.22 µg/mL
same,IC50,[8],3.54 µg/mL
same,IC90,[8],9.62 µg/mL
same,IC50,[9],8.3 µg/mL
same,IC90,[9],15 µg/mL
same,IC50,[10],5.78 µg/mL
same,IC90,[10],8 µg/mL
same,IC50,[11],7.5 µg/mL
same,IC90,[11],> 16 µg/mL
same,IC50,A549 (human lung cancer),11.9 µg/mL
same,IC90,A549 (human lung cancer),> 16 µg/mL
same,IC50,[12],6.52 µg/mL
same,IC90,[12],13 µg/mL
same,IC50,[13],4.86 µg/mL
same,IC90,[13],7.6 µg/mL
same,IC50,[14],2.6 µg/mL
same,IC90,[14],4 µg/mL
same,IC50,[15],4.64 µg/mL
same,IC90,[15],10.9 µg/mL
same,IC50,[16],4.92 µg/mL
same,IC90,[16],15.5 µg/mL
same,IC50,[17],2.18 µg/mL
same,IC90,[17],8.89 µg/mL
COc1ccc2cc1Oc1ccc(cc1)C[C@H]1c3cc(c(OC)cc3CCN1C)Oc1c(OC)c(OC)c(CNCc3cccnc3)c3c1[C@H](C2)N(C)CC3 [BS-TE-348],IC50,PC-3 (prostate cancer),4.44 µg/mL
same,IC90,PC-3 (prostate cancer),8.36 µg/mL
same,IC50,MG63 (osteosarcoma),1.52 µg/mL
same,IC90,MG63 (osteosarcoma),4.06 µg/mL
same,IC50,[1],4.55 µg/mL
same,IC90,[1],13.9 µg/mL
same,IC50,[3],2.3 µg/mL
same,IC90,[3],14.5 µg/mL
same,IC50,[4],0.09 µg/mL
same,IC90,[4],1 µg/mL
same,IC50,[7],1.77 µg/mL
same,IC90,[7],3.83 µg/mL
same,IC50,[8],3.05 µg/mL
same,IC90,[8],8 µg/mL
same,IC50,[9],3.84 µg/mL
same,IC90,[9],13.6 µg/mL
same,IC50,[10],1.93 µg/mL
same,IC90,[10],5.53 µg/mL
same,IC50,A549 (human lung cancer),9.94 µg/mL
same,IC90,A549 (human lung cancer),> 16 µg/mL
same,IC50,[13],1.33 µg/mL
same,IC90,[13],2.97 µg/mL
same,IC50,[14],1.14 µg/mL
same,IC90,[14],4.78 µg/mL
same,IC50,[15],1.82 µg/mL
same,IC90,[15],9.94 µg/mL
same,IC50,[16],1.96 µg/mL
same,IC90,[16],7.37 µg/mL
same,IC50,[17],1.45 µg/mL
same,IC90,[17],5.7 µg/mL
